# Laboratory results as given in patent publication US8106048B2, “Heterocyclic NF-κB inhibitors” (4SC AG, priority 2004, dated 2012).
# How the values were obtained:
# 20S and 26S proteasome = molecular target: T1, 20S and 26S proteasome (Homo sapiens, UniProt P28072+P28074+Q99436); conditions: cited from earlier work
# T1 sequence (P28074 60-263): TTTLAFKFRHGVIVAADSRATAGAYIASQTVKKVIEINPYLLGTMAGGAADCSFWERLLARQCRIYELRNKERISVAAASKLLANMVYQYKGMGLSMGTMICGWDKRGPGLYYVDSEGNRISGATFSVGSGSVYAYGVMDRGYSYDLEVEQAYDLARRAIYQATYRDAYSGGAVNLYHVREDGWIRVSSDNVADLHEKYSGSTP
# T1 sequence (P28072 1-239): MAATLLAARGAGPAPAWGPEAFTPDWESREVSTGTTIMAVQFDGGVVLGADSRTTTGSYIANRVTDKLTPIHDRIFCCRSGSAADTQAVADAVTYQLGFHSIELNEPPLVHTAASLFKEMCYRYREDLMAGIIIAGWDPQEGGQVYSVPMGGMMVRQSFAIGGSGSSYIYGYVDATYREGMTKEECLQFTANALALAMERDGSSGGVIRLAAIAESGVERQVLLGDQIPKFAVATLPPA
# T1 sequence (Q99436 44-277): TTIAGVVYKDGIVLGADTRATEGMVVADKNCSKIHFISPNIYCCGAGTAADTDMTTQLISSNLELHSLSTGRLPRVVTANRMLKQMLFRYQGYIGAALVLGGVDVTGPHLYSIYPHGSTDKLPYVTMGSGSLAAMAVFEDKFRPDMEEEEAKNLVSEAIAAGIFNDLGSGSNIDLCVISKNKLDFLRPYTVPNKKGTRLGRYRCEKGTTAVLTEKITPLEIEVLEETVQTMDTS
# p65 subunit of NF-κB = conditions: cited from earlier work
# IκB-α = conditions: cited from earlier work
# NF-κB [1] = conditions: cited from earlier work
# NF-κB [2] = conditions: cited from earlier work; remark: listed apart in the source
# TNF-α = conditions: mouse; cited from earlier work
# [3] = system: A549-NF-κB-SEAP reporter cells; assay: Inhibition of NF-κB-induced inflammation: […] NINA Instant Assay, TNF-α stimulated SEAP reporter; type: cell-based; conditions: % inhibition classes
# In short: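 A549 cells carrying an NF-κB-driven SEAP reporter were pretreated with compound (0.01–100 μM) for 4.5 h, then stimulated with 2 ng/ml TNF-α for 22 h. After inactivation of endogenous phosphatases, SEAP activity was read by CSPD chemiluminescence (40 min). EC50 values were fitted from quadruplicate data points.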
SMILES,Biological activity (inhibition in the NF-κB inflammation assay) [3],other results
CC(=O)N[C@@H](CSC(=O)[C@]1([C@@H](O)C(C)C)NC(=O)[C@H](C)[C@@H]1O)C(=O)O [Lactacystin],,"inhibition of 20S and 26S proteasome (20S and 26S proteasome): inhibits both, 20S and 26S proteasome; inhibitory activity on proteasome peptidase activities (20S and 26S proteasome; trypsin-like, chymotrypsin-like, peptidylglutamylpeptide hydrolyzing): inhibitory activity on trypsin-like, chymotrypsin-like and peptidylglutamylpeptide hydrolyzing activities"
C=C1C(=O)O[C@@H]2C[C@H](C)[C@H]3C=CC(=O)[C@@]3(C)[C@@H](O)[C@H]12 [Helenalin],,translocation of NF-κB to the nucleus (p65 subunit of NF-κB): did not inhibit; IκB degradation (IκB-α): did not inhibit; NF-κB activation / activity (NF-κB [1]): inhibit NF-κB activity by selectively alkylating the cysteine residue of the p65 subunit of NF-κB
CCN(CC)CCNC(=O)c1ccc(N)c(Cl)c1 [3-chloroprocainamide],,inhibition of NF-κB transcriptional activation (NF-κB [2]): inhibitors of NF-κB transcritional activation; lipopolysaccharide-induced TNF-α production (TNF-α): blocked lipopolysacharide-induced TNF-α production in mouse in a dose dependent manner
COc1cc(CNC(=O)CCCC/C=C/C(C)C)ccc1O [capsaicin],,translocation of NF-κB to the nucleus (p65 subunit of NF-κB): blocked; IκB degradation (IκB-α): blocked degradation of IκB-α; NF-κB activation / activity (NF-κB [1]): blocked TNF-α and phorbol mediated NF-κB activation
S=C(S)N1CCCC1 [pyrrolidine dithiocarbamate],,inhibition of NF-κB transcriptional activation (NF-κB [2]): inhibitors of NF-κB transcritional activation; lipopolysaccharide-induced TNF-α production (TNF-α): blocked lipopolysacharide-induced TNF-α production in mouse in a dose dependent manner
NC(=O)c1cccnc1 [nicotinamide],,lipopolysaccharide-induced TNF-α production (TNF-α): blocked lipopolysacharide-induced TNF-α production in mouse in a dose dependent manner
O=C(CCC1CCCC1)Nc1nc(C(=O)N2CCN(c3cccc(C(F)(F)F)c3)CC2)cs1 [compound 33],+++ (“+++” stands for 90-100% inhibition),
Cc1cc(=O)[nH]c(NC(=O)c2csc(C3CCN(C(=O)c4ccccc4OC(F)(F)F)CC3)n2)n1 [compound 86],+ (“+” stands for 50-80% inhibition),
O=C(c1csc(C2CCN(Cc3cc(C(F)(F)F)cc(C(F)(F)F)c3)CC2)n1)N1CCN(c2cccc(C(F)(F)F)c2)CC1 [compound 175],+ (“+” stands for 50-80% inhibition),
O=C(Cc1ccc(F)cc1)N1CCC(c2nc(C(=O)N3CCC(n4nnc5cc(C(F)(F)F)ccc54)CC3)cs2)CC1 [compound 181],+ (“+” stands for 50-80% inhibition),
O=C(Cc1ccc(F)cc1)N1CCC(c2nc(C(=O)N3CCc4ccccc43)cs2)CC1 [compound 162],+ (“+” stands for 50-80% inhibition),
O=C(Nc1ccccc1OC(F)(F)F)N1CCC(c2nc(C(=O)N3CCN(c4cccc(C(F)(F)F)c4)CC3)cs2)CC1 [compound 79],+++ (“+++” stands for 90-100% inhibition),
O=C(c1csc(C2CCN(C(=O)c3ccccc3OC(F)(F)F)CC2)n1)N1CCOC(c2ccccc2)C1 (stereo not shown) [compound 146],+ (“+” stands for 50-80% inhibition),
Nc1cc(=O)[nH]c(NC(=O)c2csc(C3CCN(C(=O)c4ccccc4OC(F)(F)F)CC3)n2)n1 [compound 83],+ (“+” stands for 50-80% inhibition),
O=C(c1csc(C2CCN(c3ccc(OC(F)(F)F)cc3)CC2)n1)N1CCN(c2cccc(C(F)(F)F)c2)CC1 [compound 154],+ (“+” stands for 50-80% inhibition),
N=C(NC(=O)c1csc(C2CCNCC2)n1)Nc1nc2ccccc2[nH]1 [compound 94],+ (“+” stands for 50-80% inhibition),
O=C(O)c1ccccc1C(=O)N1CCC(c2nc(C(=O)N3CCN(c4cccc(C(F)(F)F)c4)CC3)cs2)CC1 [compound 185],+ (“+” stands for 50-80% inhibition),
O=C(c1csc(C2CCN(Cc3ccc(-c4ccccc4)cc3)CC2)n1)N1CCN(c2cccc(C(F)(F)F)c2)CC1 [compound 167],+ (“+” stands for 50-80% inhibition),
COc1ccccc1N1CCN(C(=O)c2csc(C3CCN(C(=O)Cc4ccc(F)cc4)CC3)n2)CC1 [compound 229],+ (“+” stands for 50-80% inhibition),
O=C(c1csc(C2CCN(S(=O)(=O)c3ccccc3Br)CC2)n1)N1CCN(c2cccc(C(F)(F)F)c2)CC1 [compound 196],+ (“+” stands for 50-80% inhibition),
O=C(c1csc(C2CCN(c3ccccc3)CC2)n1)N1CCN(c2cccc(C(F)(F)F)c2)CC1 [compound 119],+ (“+” stands for 50-80% inhibition),
